Laboratory results taken from PubChem BioAssay (NCI).
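These data come from cells grown in 96-well plates and exposed to compound for 48 hours at five concentrations. Definition used: TGI = concentration required for complete inhibition of growth.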 *1 amine or outer side, *2 acyl side, *3 side chain or, on linkers, in order; H or OH if unused. Where a SMILES comes first, the peptide text is derived from it. Bridges are numbered along the chain shown (N, C = ends). Roman numbers before positions name the chains, in order. [ ]: non-standard residue; d: D form. Actinocin(9to1) = Cc1c2oc3c(C)ccc(C(=O)[*:1])c3nc-2c(C(=O)[*:2])c(N)c1=O; NMeV = CN[CH](C(=O)O)C(C)C; Sar = CNCC(=O)O

Experiments:
Assay in all cases: inhibition of tumour cell growth, NCI panel, 48 h
NCI-H522 lung = test system: NCI-H522 lung
DU-145 prostate = test system: DU-145 prostate
COLO 205 colon = test system: COLO 205 colon
U251 CNS = test system: U251 CNS
OVCAR-5 ovarian = test system: OVCAR-5 ovarian
SR leukemia = test system: SR leukemia
IGROV1 ovarian = test system: IGROV1 ovarian
SK-MEL-28 melanoma = test system: SK-MEL-28 melanoma
KM12 colon = test system: KM12 colon
RXF 393 renal = test system: RXF 393 renal

Row | Structure (SMILES) | TGI (NCI-H522 lung) | TGI (DU-145 prostate) | TGI (COLO 205 colon) | TGI (U251 CNS) | TGI (OVCAR-5 ovarian) | TGI (SR leukemia) | TGI (IGROV1 ovarian) | TGI (SK-MEL-28 melanoma) | TGI (KM12 colon) | TGI (RXF 393 renal)
1 | C(=C\c1ccccc1)/C=N/c1nc2cc3sc(/N=C/C=C/c4ccccc4)nc3cc2s1 | > 100 µM | > 100 µM | > 25.8 µM | > 100 µM | > 100 µM | 32.4 µM | > 100 µM | > 100 µM | > 100 µM | > 100 µM
2 | O=S1(=O)c2ccccc2C(=NO)c2ccccc21 | > 100 µM | > 100 µM | > 100 µM | > 100 µM | > 100 µM | > 100 µM | > 100 µM | > 100 µM | > 100 µM | > 100 µM
3 | Cc1cc(-c2nc3ccccc3s2)ccc1NC(=O)[C@H](C)N | 75.8 µM | 29 µM | 26.7 µM | 33.9 µM | 19.1 µM | 13.4 µM | 23.4 µM | 29.3 µM | 31.1 µM | 25.4 µM
4 | Cc1c2oc3c(C)ccc(C(=O)NC4C(=O)NC(C(C)O)C(=O)N5CCCC5C(=O)N(C)CC(=O)N(C)C(C(C)C)C(=O)OC4C)c3nc-2c(C(=O)NC2C(=O)NC(C(C)O)C(=O)N3CCCC3C(=O)N(C)CC(=O)N(C)C(C(C)C)C(=O)OC2C)c(N)c1=O (stereo not given) (I: TTP[Sar][NMeV] / II: TTP[Sar][NMeV]; ester I:1-I:C, II:1-II:C; linker I:N-II:N via Actinocin(9to1); configuration not given here) | 1.14 µM | > 100 µM | 0.762 µM | > 100 µM | 44.2 µM | 0.047 µM | > 100 µM | 2.75 µM | > 30.1 µM | 1.29 µM
